Measured values from patent US20050170966A1, “Surfactants and surfactant compositions” (priority 2002, published 2005).

Test system: mixtures of weeds: Cockspur (Echinochloa crus-galli), Fat-hen (Chenopodium album), Smartweed (Polygonum persicaria)
Test: Field trial: adjuvant effect on Glyphosate herbicidal activity on mixed weed plots
Format: in vivo
Details: glyphosate 1080 g(a.e.).ha^-1, adjuvant 540 g.ha^-1 (2:1)
Experimental: This Example tests the effect of adjuvants on Glyphosate herbicidal activity under field conditions. The herbicide was applied to test plots of weeds at a rate of 1080 g(a.e.).ha^−1 (350 l.ha^−1 of spray containing 3.086 g.l^−1 a.e.) with a weight ratio of active to adjuvant of 2:1=540 g(adjuvant).ha^−1. Spray plots were treated with the herbicide formulations, one of each of four adjuvants of the invention (SE1, SE2, SE3, and SE4) a fatty amine ethoxylate (FAE1) for comparison, or left untreated as controls (no weed control). The spray plots were in a completely randomised block design with 3 replicates of 3×5 m plots. the sprayed plots were sprayed using a compressed-air AZO sprayer at a pressure of 2.5 bar, equipped with Teejet XR80015VS nozzles. During this trial, it rained for about 15 minutes about 2 hours after spraying, giving a good indication of the rainfastness off the formulations tested.
The test plots used mixtures of the following weeds at the 2 to 4 leaf stage:
The results of spraying were evaluated by visual comparison with untreated control blocks 12, 20 and 35 days after treatment (DAT), assessing chlorosis (chlor) and growth inhibition (inhib) as percentages with 0=no effect and 100=complete kill as compared with the untreated controls.

[1] = 12 DAT, 0=no effect, 100=complete kill

| Compound | inhib (%) growth inhibition (12 DAT) [%] | chlor (%) chlorosis [1] [%] | chlor (%) chlorosis (20 DAT) [%] | inhib (%) growth inhibition (20 DAT) [%] | chlor (%) chlorosis (35 DAT) [%] | inhib (%) growth inhibition (35 DAT) [%] |
| --- | --- | --- | --- | --- | --- | --- |
| 1-[Bis-(2-hydroxyethyl)-amino]-2-hydroxypropane-3-(stearyl 25-ethoxylate) [SE4] | 62 | 63 | 75 | 75 | 65 | 68 |
| 1-[Diethylamino]-2-hydroxypropane-3-(Alc1 15-ethoxylate) [SE1] | 67 | 62 | 77 | 78 | 78 | 78 |
| CCCCCCCCCCCCCCCCCCOCCOCCOCCOCCOCCOCCOCCOCCOCCOCCOCCOCCOCCOCCOCCOCCOCCOCCOCCOCCOCCOCCOCCOCCOCCOCC(O)CN(CC)CC (stereo not drawn) [SE3, 1-diethylamino-2-hydroxypropane-3-(stearyl 25-ethoxylate)] | 63 | 62 | 72 | 72 | 68 | 75 |
